From patent publication US10308643B2, “Heterocyclic compound” (Takeda Pharmaceutical Company Limited, priority 2015, dated 2019)

What was measured:
Format in all cases: biochemical
[1] = target: T1, HDAC9 enzyme (Homo sapiens, UniProt Q9UKV0); assay: HDAC9 Enzyme Inhibitory Assay (HDAC-Glo class IIa); conditions: 1 μM test compound, wells without enzyme = 100% inhibition; for inhibition at 1 µM: read-out: HDAC9 inhibitory rate (%) (1 μM)
T1 construct: transducing full length HDAC9 gene into Sf-9 insect cells; made in house; host or cells: Sf-9 insect cells
T1 sequence (Q9UKV0 whole entry, species assumed): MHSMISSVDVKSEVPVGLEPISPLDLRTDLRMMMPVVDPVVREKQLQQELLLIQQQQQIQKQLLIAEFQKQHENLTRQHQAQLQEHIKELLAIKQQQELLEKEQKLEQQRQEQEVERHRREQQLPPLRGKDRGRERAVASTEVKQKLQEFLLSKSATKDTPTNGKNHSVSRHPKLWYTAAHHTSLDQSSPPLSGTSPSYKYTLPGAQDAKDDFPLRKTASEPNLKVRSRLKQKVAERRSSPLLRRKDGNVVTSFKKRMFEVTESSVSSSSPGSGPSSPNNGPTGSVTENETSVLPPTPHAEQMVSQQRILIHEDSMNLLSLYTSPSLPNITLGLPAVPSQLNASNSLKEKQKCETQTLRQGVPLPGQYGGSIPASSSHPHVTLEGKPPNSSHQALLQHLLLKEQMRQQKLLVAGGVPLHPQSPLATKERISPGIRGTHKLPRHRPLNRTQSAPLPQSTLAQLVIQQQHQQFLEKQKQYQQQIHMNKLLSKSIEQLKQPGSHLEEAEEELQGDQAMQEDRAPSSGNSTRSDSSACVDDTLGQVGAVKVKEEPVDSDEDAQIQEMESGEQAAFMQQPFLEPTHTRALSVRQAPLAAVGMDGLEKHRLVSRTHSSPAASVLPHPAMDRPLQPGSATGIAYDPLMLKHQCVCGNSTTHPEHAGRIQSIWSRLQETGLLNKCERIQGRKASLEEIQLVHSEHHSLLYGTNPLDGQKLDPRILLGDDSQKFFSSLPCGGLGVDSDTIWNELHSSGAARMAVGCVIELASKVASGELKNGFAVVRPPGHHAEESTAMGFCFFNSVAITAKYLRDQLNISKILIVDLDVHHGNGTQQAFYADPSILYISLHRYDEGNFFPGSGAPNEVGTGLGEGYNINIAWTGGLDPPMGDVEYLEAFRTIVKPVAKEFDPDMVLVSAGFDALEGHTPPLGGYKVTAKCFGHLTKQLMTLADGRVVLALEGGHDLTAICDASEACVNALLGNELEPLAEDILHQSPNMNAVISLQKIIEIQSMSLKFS
How it was run: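 Luminescent HDAC-Glo class IIa readout after a 20 min room-temperature reaction; relative inhibition referenced to enzyme-free wells as 100%. Test compound first preincubated 60 min with Sf-9-expressed, Ni-NTA-purified full-length HDAC9 in pH 7.5 Tris buffer containing 135 mM NaCl, 0.6 mM glutathione and 0.01% Tween-20.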

[2] = target: T2, HDAC6 enzyme (Homo sapiens, UniProt Q9UBN7); assay: HDAC1/6 Enzyme Inhibitory Assay (HDAC-Glo I/II Assay kit), HDAC6; conditions: 1 μM test compound, wells without enzyme = 100% inhibition; for inhibition at 1 µM: read-out: HDAC6 inhibitory rate (%) (1 μM)
T2 construct: transducing full length HDAC1 and HDAC6 genes into Sf-9 insect cells; GST; purchased SignalChem; host or cells: Sf-9 insect cells
T2 sequence (Q9UBN7 1-1215): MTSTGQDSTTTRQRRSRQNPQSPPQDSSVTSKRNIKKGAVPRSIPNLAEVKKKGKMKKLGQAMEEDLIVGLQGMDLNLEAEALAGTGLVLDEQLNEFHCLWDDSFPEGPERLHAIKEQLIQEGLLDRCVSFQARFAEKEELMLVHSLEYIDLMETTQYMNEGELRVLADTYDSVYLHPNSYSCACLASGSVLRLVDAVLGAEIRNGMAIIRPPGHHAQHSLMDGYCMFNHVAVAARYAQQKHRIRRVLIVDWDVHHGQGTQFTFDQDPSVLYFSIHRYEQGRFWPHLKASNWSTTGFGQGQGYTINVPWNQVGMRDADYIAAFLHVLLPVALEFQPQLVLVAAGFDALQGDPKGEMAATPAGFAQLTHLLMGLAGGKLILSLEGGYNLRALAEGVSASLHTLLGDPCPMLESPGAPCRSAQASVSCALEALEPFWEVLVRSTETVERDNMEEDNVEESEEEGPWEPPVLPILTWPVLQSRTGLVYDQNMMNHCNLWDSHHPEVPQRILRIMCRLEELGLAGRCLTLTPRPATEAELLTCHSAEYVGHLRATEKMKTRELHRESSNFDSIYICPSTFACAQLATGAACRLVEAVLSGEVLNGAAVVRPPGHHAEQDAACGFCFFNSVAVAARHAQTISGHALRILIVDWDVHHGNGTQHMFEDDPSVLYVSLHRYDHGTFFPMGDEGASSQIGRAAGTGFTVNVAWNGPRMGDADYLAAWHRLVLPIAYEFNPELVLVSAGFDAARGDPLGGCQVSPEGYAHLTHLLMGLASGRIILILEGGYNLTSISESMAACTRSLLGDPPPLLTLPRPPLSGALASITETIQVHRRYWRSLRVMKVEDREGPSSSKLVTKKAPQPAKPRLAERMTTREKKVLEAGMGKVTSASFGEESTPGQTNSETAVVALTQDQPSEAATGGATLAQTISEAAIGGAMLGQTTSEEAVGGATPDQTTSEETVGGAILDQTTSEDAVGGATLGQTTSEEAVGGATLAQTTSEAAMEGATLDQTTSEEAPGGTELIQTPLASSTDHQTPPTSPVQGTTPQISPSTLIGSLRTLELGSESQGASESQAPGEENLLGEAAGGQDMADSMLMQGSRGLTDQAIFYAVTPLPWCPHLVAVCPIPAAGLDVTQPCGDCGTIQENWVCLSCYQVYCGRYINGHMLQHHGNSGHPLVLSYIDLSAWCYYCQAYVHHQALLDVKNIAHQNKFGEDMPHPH
How it was run: (§1)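 Full-length human HDAC1 or HDAC6, expressed in Sf-9 cells and GST-purified, was preincubated with compound for 60 min at room temperature in Tris-HCl pH 7.5 buffer with MgCl2, KCl, NaCl, glutathione and Tween-20. HDAC-Glo substrate-developer was then added, and luminescence was read after 20 min. Inhibition was referenced to no-enzyme wells as 100%.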

[3] = target: T3, HDAC1 enzyme (Homo sapiens, UniProt Q13547); assay: HDAC1/6 Enzyme Inhibitory Assay (HDAC-Glo I/II Assay kit), HDAC1; conditions: 1 μM test compound, wells without enzyme = 100% inhibition; for inhibition at 1 µM: read-out: HDAC1 inhibitory rate (%) (1 μM)
T3 construct: transducing full length HDAC1 and HDAC6 genes into Sf-9 insect cells; GST; purchased SignalChem; host or cells: Sf-9 insect cells
T3 sequence (Q13547 whole entry): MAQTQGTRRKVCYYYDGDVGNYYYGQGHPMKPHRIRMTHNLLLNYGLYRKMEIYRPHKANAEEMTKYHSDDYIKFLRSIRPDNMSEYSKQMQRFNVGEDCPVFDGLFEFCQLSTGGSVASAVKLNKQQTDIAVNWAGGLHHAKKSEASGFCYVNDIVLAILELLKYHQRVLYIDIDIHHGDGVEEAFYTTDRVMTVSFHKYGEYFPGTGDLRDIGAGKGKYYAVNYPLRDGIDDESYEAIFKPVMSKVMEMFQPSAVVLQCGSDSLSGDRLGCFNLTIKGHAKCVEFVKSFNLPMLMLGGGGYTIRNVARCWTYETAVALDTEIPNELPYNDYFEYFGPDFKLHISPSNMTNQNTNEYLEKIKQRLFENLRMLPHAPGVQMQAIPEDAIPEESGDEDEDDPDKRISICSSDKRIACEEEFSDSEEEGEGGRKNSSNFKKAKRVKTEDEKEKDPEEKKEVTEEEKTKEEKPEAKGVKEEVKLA
How it was run: as §1

N[C@@H]1CCC[C@H]1N1Cc2ccc(-c3noc(C(F)(F)F)n3)cc2C1=O [Example 142, 2-((1R,2R)-2-aminocyclopentyl)-6-(5-(trifluoromethyl)-1,2,4-oxadiazol-3-yl)isoindolin-1-one]
inhibition at 1 µM [1]: 54% | inhibition at 1 µM [2]: -3% | inhibition at 1 µM [3]: -6%

N[C@H]1CCC[C@@H]1N1Cc2ccc(-c3noc(C(F)(F)F)n3)cc2C1=O [Example 143, 2-((1S,2S)-2-aminocyclopentyl)-6-(5-(trifluoromethyl)-1,2,4-oxadiazol-3-yl)isoindolin-1-one]
inhibition at 1 µM [1]: 52% | inhibition at 1 µM [2]: -4% | inhibition at 1 µM [3]: -1%

O=C(N[C@@H]1CCCC[C@H]1N1Cc2ccc(-c3noc(C(F)(F)F)n3)cc2C1=O)N1C2COCC1C2 [Example 144, N-((1R,2R)-2-(1-oxo-6-(5-(trifluoromethyl)-1,2,4-oxadiazol-3-yl)-1,3-dihydro-2H-isoindol-2-yl)cyclohexyl)-3-oxa-6-azabicyclo[3.1.1]heptane-6-carboxamide]
inhibition at 1 µM [1]: 31% | inhibition at 1 µM [2]: 100% | inhibition at 1 µM [3]: 3%

O=C(N[C@@H]1CCCC[C@H]1N1Cc2ccc(-c3noc(C(F)(F)F)n3)cc2C1=O)N1C2CCC1COC2 [Example 145, N-((1R,2R)-2-(1-oxo-6-(5-(trifluoromethyl)-1,2,4-oxadiazol-3-yl)-1,3-dihydro-2H-isoindol-2-yl)cyclohexyl)-3-oxa-8-azabicyclo[3.2.1]octane-8-carboxamide]
inhibition at 1 µM [1]: 35% | inhibition at 1 µM [2]: 98% | inhibition at 1 µM [3]: 0%

O=C(N[C@@H]1CCCC[C@H]1N1Cc2ccc(-c3noc(C(F)(F)F)n3)cc2C1=O)N1CC2CCC(C1)O2 [Example 146, N-((1R,2R)-2-(1-oxo-6-(5-(trifluoromethyl)-1,2,4-oxadiazol-3-yl)-1,3-dihydro-2H-isoindol-2-yl)cyclohexyl)-8-oxa-3-azabicyclo[3.2.1]octane-3-carboxamide]
inhibition at 1 µM [1]: 23% | inhibition at 1 µM [2]: 99% | inhibition at 1 µM [3]: 2%

O=C(N[C@@H]1CCCC[C@H]1N1Cc2ccc(-c3noc(C(F)(F)F)n3)cc2C1=O)[C@@H]1CC1(F)F [Example 147, (1S)-2,2-difluoro-N-((1R,2R)-2-(1-oxo-6-(5-(trifluoromethyl) -1,2,4-oxadiazol-3-yl)-1,3-dihydro-2H-isoindol-2-yl)cyclohexyl)cyclopropanecarboxamide]
inhibition at 1 µM [1]: 51% | inhibition at 1 µM [2]: 99% | inhibition at 1 µM [3]: 6%

O=C(N[C@@H]1CCCC[C@H]1N1Cc2ccc(-c3noc(C(F)(F)F)n3)cc2C1=O)[C@H]1CC1(F)F [Example 148, (1R)-2,2-difluoro-N-((1R,2R)-2-(1-oxo-6-(5-(trifluoromethyl)-1,2,4-oxadiazol-3-yl)-1,3-dihydro-2H-isoindol-2-yl)cyclohexyl) cyclopropanecarboxamide]
inhibition at 1 µM [1]: 82% | inhibition at 1 µM [2]: 100% | inhibition at 1 µM [3]: 8%

O=C(N[C@@H]1COCC[C@H]1N1Cc2ccc(-c3noc(C(F)(F)F)n3)cc2C1=O)[C@@H]1CC1(F)F [Example 149, (1S)-2,2-difluoro-N-((3S,4R)-4-(1-oxo-6-(5-(trifluoromethyl)-1,2,4-oxadiazol-3-yl)-1,3-dihydro-2H-isoindol-2-yl)tetrahydro-2H-pyran-3-yl)cyclopropanecarboxamide]
inhibition at 1 µM [1]: 60% | inhibition at 1 µM [2]: 100% | inhibition at 1 µM [3]: 12%

O=C(N[C@@H]1COCC[C@H]1N1Cc2ccc(-c3noc(C(F)(F)F)n3)cc2C1=O)[C@H]1CC1(F)F [Example 150, (1R)-2,2-difluoro-N-((3S,4R)-4-(1-oxo-6-(5-(trifluoromethyl)-1,2,4-oxadiazol-3-yl)-1,3-dihydro-2H-isoindol-2-yl)tetrahydro-2H-pyran-3-yl)cyclopropanecarboxamide]
inhibition at 1 µM [1]: 85% | inhibition at 1 µM [2]: 100% | inhibition at 1 µM [3]: 13%

CC1(C(=O)N[C@@H]2CCC[C@H]2N2Cc3ccc(-c4noc(C(F)(F)F)n4)cc3C2=O)COC1 [Example 151, 3-methyl-N-((1R,2R)-2-(1-oxo-6-(5-(trifluoromethyl)-1,2,4-oxadiazol-3-yl)-1,3-dihydro-2H-isoindol-2-yl)cyclopentyl)oxetane-3-carboxamide]
inhibition at 1 µM [1]: 42% | inhibition at 1 µM [2]: 35% | inhibition at 1 µM [3]: 16%

CC1(C(=O)N[C@H]2CCC[C@@H]2N2Cc3ccc(-c4noc(C(F)(F)F)n4)cc3C2=O)COC1 [Example 152, 3-methyl-N-((1S,2S)-2-(1-oxo-6-(5-(trifluoromethyl)-1,2,4-oxadiazol-3-yl)-1,3-dihydro-2H-isoindol-2-yl)cyclopentyl)oxetane-3-carboxamide]
inhibition at 1 µM [1]: 38% | inhibition at 1 µM [2]: 31% | inhibition at 1 µM [3]: 13%

O=C1c2cc(-c3noc(C(F)(F)F)n3)ccc2CN1[C@@H]1CCCC[C@H]1NC(=O)C1(CO)CC1 [Example 153, 1-(hydroxymethyl)-N-((1R,2R)-2-(1-oxo-6-(5-(trifluoromethyl)-1,2,4-oxadiazol-3-yl)-1,3-dihydro-2H-isoindol-2-yl)cyclohexyl) cyclopropanecarboxamide]
inhibition at 1 µM [1]: 52% | inhibition at 1 µM [2]: 100% | inhibition at 1 µM [3]: 6%

O=C(NC1CC1)N[C@@H]1CCCC[C@H]1N1Cc2ccc(-c3noc(C(F)(F)F)n3)cc2C1=O [Example 154, 1-cyclopropyl-3-((1R,2R)-2-(1-oxo-6-(5-(trifluoromethyl)-1,2,4-oxadiazol-3-yl)-1,3-dihydro-2H-isoindol-2-yl)cyclohexyl)urea]
inhibition at 1 µM [1]: 54% | inhibition at 1 µM [2]: 100% | inhibition at 1 µM [3]: 11%

CN(C(=O)N[C@@H]1CCCC[C@H]1N1Cc2ccc(-c3noc(C(F)(F)F)n3)cc2C1=O)C1CC1 [Example 155, 1-cyclopropyl-1-methyl-3-((1R,2R)-2-(1-oxo-6-(5-(trifluoromethyl)-1,2,4-oxadiazol-3-yl)-1,3-dihydro-2H-isoindol-2-yl)cyclohexyl)urea]
inhibition at 1 µM [1]: 54% | inhibition at 1 µM [2]: 100% | inhibition at 1 µM [3]: 14%

O=C(N[C@@H]1CCCC[C@H]1N1Cc2ccc(-c3noc(C(F)(F)F)n3)cc2C1=O)N1CC2CC1CO2 (stereo partly drawn) [Example 156, N-((1R,2R)-2-(1-oxo-6-(5-(trifluoromethyl)-1,2,4-oxadiazol-3-yl)-1,3-dihydro-2H-isoindol-2-yl)cyclohexyl)-2-oxa-5-azabicyclo[2.2.1]heptane-5-carboxamide]
inhibition at 1 µM [1]: 8% | inhibition at 1 µM [2]: 96% | HDAC1 inhibitory rate (%) (1 μM) [3]: −1%

O=C(N[C@@H]1CCCC[C@H]1N1Cc2ccc(-c3noc(C(F)(F)F)n3)cc2C1=O)N1CC2CC1CO2 (stereo partly drawn) [Example 157, N-((1R,2R)-2-(1-oxo-6-(5-(trifluoromethyl)-1,2,4-oxadiazol-3-yl)-1,3-dihydro-2H-isoindol-2-yl)cyclohexyl)-2-oxa-5-azabicyclo[2.2.1]heptane-5-carboxamide]
HDAC9 inhibitory rate (%) (1 μM) ([1]; 1 µM): 15% | HDAC6 inhibitory rate (%) (1 μM) [2]: 96% | HDAC1 inhibitory rate (%) (1 μM) [3]: −2%

O=C(N[C@@H]1CCCC[C@H]1N1Cc2ccc(-c3noc(C(F)(F)F)n3)cc2C1=O)N1CCCC1 [Example 158, N-((1R,2R)-2-(1-oxo-6-(5-(trifluoromethyl)-1,2,4-oxadiazol-3-yl)-1,3-dihydro-2H-isoindol-2-yl)cyclohexyl)pyrrolidine-1-carboxamide]
inhibition at 1 µM [1]: 34% | inhibition at 1 µM [2]: 99% | inhibition at 1 µM [3]: 4%
